Test results taken from patent US4992535A, “Methods of making novel R and S diastereomers of N^6 -[(2-hydroxypropyl)aryl]adenosines” (G. D. Searle & Co., priority 1988, dated 1991).
“Also recorded” adds a separate entry of the source.

Tests used:
mice [1] = test: Behavioral signs of toxicity in mice; format: in vivo; set-up: key to Motor depression / Ptosis / Respiratory depression / Flaccidity / Loss of righting reflex: +: toxic symptom observed; +*: * = 2/7; +^#: ^# = 5/7; details: 75 mg/kg IP
Description: (§1) Adenosine analogs tend to produce sedation and central nervous system depression which have prevented their therapeutic utility. The compounds of the invention, at doses which lower arterial pressure in the SHR, show no evidence of CNS depression. The ataxia produced by compounds of the present invention was measured in mice by injecting the compounds IP at doses of 32, 56, or 75 mg/kg in an aqueous suspension, n=7 per dose. The mice had previously been trained to remain on a rotating rod. After dosing, the percent of mice unable to remain on the rotating rod was determined. […] The mice were also observed at various time intervals for behavioral signs of toxicity.

mice [2] = test: Ataxia, rotating rod, in mice; format: in vivo, mouse; details: for Percent ataxic, 0.5 hour / Percent ataxic, 3 hour: 54 ± 12 mg/kg ip (pooled 32, 56, 75 mg/kg); for ataxia / motor toxicity compared to compound I, in words: ip, 0.5 or 3 hours
Description: as §1

adenosine A1 receptor = biological target: T1, adenosine A1 receptor (Rattus norvegicus, UniProt P25099); test: Adenosine A1 receptor binding, inhibition of HPIA binding to crude plasma membranes
T1 construct: Crude plasma membranes were prepared; from tissue; host or cells: crude plasma membranes
T1 sequence (P25099 1-326): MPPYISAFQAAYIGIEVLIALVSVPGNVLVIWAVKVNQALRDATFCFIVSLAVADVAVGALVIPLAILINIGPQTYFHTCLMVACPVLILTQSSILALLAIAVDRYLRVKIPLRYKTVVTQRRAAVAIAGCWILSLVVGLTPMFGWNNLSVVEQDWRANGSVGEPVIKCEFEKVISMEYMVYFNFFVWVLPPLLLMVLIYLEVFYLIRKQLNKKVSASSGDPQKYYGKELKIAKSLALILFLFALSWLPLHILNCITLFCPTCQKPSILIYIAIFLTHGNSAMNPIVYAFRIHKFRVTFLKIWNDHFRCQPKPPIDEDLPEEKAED
Description: The binding potency of compound I, II and III to the adenosine Al receptor was measured according to the method of Schwabe, U. et al., Naunyn Schmeid. Arch. Pharmacol. 321:84, 1982. Crude plasma membranes were prepared and varying concentrations of compounds I, II or III were added to the membrane preparation in the presence of ^125 -N-p hydroxyphenyl isopropyladenosine (HPIA). The affinity of the compounds for the adenosine Al receptor was estimated from the concentrations necessary to inhibit the binding of HPIA by 50% (IC50).

[3] = system: PRA in Sprague Dawley rats with renal arteries ligated; test: Plasma renin activity (PRA) in the bilateral renal artery ligated rat; format: in vivo; details: 1 mg/kg IV; for prevention of PRA increase, in words: 30 and 60 minutes; for Change in PRA at 30 minutes: 30 minutes after dosing; for Change in PRA at 60 minutes: 60 minutes after dosing
Description: Adenosine Al receptor stimulation will inhibit the release of renin from the kidney. A stimulus for the release of renin is renal ischemia. The ability of the compounds of the present invention to prevent an increase in PRA following renal ischemia was tested in rats with both renal arteries ligated. Sprague Dawley rats were anesthetized with ether and the renal arteries were ligated. Three to five hours after anesthesia, arterial blood was sampled and compounds I, II or III were administered in polyethylene glycol at 1 mg/kg I.V. At 30 and 60 minutes after administration, arterial blood was sampled for PRA measurement by the method of Sealy, J. E. et al., Cardiovasc. Med. 2:1079, 1977.

[4] = system: spontaneously hypertensive rats (SHR); test: Mean arterial pressure and heart rate in conscious spontaneously hypertensive rats (IV and intragastric); format: in vivo, rat; details: for Maximum decrease at 20 mg/kg ig, HR / Maximum decrease at 20 mg/kg ig, MAP: day 2 of oral administration; for ED (100 b/min decrease) / ED (40 mmHg decrease): Rattus norvegicus, IV; for ED (100 b/min decrease): read-out: IV dose to decrease HR by 100 b/min; for ED (40 mmHg decrease): read-out: IV dose to decrease MAP by 40 mmHg
Description: The effects of compounds I and II were tested intravenously or intragastrically in conscious spontaneously hypertensive rats (SHR). The rats were anesthetized with ether and the left carotid artery and right jugular vein were cannulated with polyethylene tubing. The rats were allowed three to five hours recovery from anesthesia for the I.V. studies and 12 to 18 hours for the oral studies. Mean arterial pressure (MAP, in mm/Hg) and heart rate (HR, beats/min.) were measured from the artery; intravenous administration of compounds was performed by injection into the vein. Oral administration was performed by gastric intubation. Compounds were dissolved in DMSO for I.V. studies and injected in volumes of […] or less (N=5 per compound). Doses were 3 to 1,000 mg/kg. Compounds were dissolved in polyethylene glycol for oral administration and injected in volumes of 1 ml/kg at dose of 20 mg/kg/day for three days (N=3 to 6 per compound).
The resting MAP and HR for the SHR ranged between 160-200 mm Hg and 330/350 b/min., respectively.

hypertensive models = details: Federation Proceedings 44:879 & 1643, 1985; cited from earlier work
[5] = system: adenosine A1 receptor in the granular juxtaglomerular cells of the kidney; details: Federation Proceedings 44:879 & 1643, 1985; cited from earlier work
central nervous system = test: CNS toxicity / CNS depression, general statements; format: in vivo; details: summary statement

Row | Compound | behavioral toxicity in words (mice [1]; 18-20 hours) | Flaccidity (mice [1]; 18-20 hr) | Motor depression (mice [1]; 18-20 hr) | Ptosis (mice [1]; 18-20 hr) | Motor depression (mice [1]; 0.5 hr) | Ptosis (mice [1]; 0.5 hr) | Respiratory depression (mice [1]; 0.5 hr) | Motor depression (mice [1]; 3 hr) | Ptosis (mice [1]; 3 hr) | Respiratory depression (mice [1]; 3 hr) | Percent ataxic, 0.5 hour (mice [2]) | Percent ataxic, 3 hour (mice [2]) | IC50 (adenosine A1 receptor) | prevention of PRA increase, in words [3] | Change in PRA at 30 minutes [3] | Change in PRA at 60 minutes [3] | Maximum decrease at 20 mg/kg ig, HR [4] | Maximum decrease at 20 mg/kg ig, MAP [4] | ED (100 b/min decrease) [4] | ED (40 mmHg decrease) [4] | other results
1 | OC[C@H]1O[C@@H](n2cnc3c(NCC(O)COc4cccc5ccccc45)ncnc32)[C@H](O)[C@@H]1O (mixture of isomers) [Compound I, N(6) [2 hydroxy-3-(1 naphthyloxy)propyl]-adenosine] | still producing several of the toxic symptoms | +* | + | + | + | + | + | + | + | + | 33 ± 10% | 95 ± 5% | 1.2 nM | prevented to the same extent | -2.9 ± 5.0 ngAI/ml/hr | -9.4 ± 7.4 ngAI/ml/hr | 214 ± 14 b/min | 50 ± 13 mmHg | 0.037 ± 0.0013 mg/kg | 0.052 ± 0.0013 mg/kg | Respiratory depression (mice [1]; 18-20 hr): +; behavioral toxicity in words (mice [1]; 3 hours): also produced flaccidity and loss of writhing reflex; Flaccidity (mice [1]; 3 hr): +; Loss of righting reflex (mice [1]; 3 hr): +; arterial blood pressure and heart rate, in words (hypertensive models): reducing arterial blood pressure and heart rate; binding to the adenosine A1 receptor, in words [5]: binds to the adenosine Al receptor; inhibition of renin release into the plasma, in words [5]: inhibit release of renin into the plasma
2 | OC[C@H]1O[C@@H](n2cnc3c(NC[C@@H](O)COc4cccc5ccccc45)ncnc32)[C@H](O)[C@@H]1O [II, N-[2R-hydroxy-3-(1-naphthalenyloxy)propyl]-adenosine] | still producing several of the toxic symptoms | + | + | + | + | + | + | + | + | + | 14 ± 8% | 48 ± 21% | 1.2 nM | prevented to the same extent | -11.7 ± 3.5 ngAI/ml/hr | -13.8 ± 4.9 ngAI/ml/hr | 202 ± 24 b/min | 62 ± 7 mmHg | 0.036 ± 0.0012 mg/kg | 0.047 ± 0.0012 mg/kg | Respiratory depression (mice [1]; 18-20 hr): +; behavioral toxicity in words (mice [1]; 24 hours): still producing toxic symptoms; Motor depression (mice [1]; 24 hr): +^#; Ptosis (mice [1]; 24 hr): +^#; Respiratory depression (mice [1]; 24 hr): ^#; ataxia / motor toxicity compared to compound I, in words (mice [2]): less motor toxicity than compound I; also recorded: less toxic than compound I with regard to ataxia; also recorded: less ataxia at 0.5 or 3 hours as compared to compound I; central nervous system toxicity, comparison in words (central nervous system): less central nervous system toxicity than the S diastereomer; also recorded: less central nervous system toxicity than the racemic mixture
3 | OC[C@H]1O[C@@H](n2cnc3c(NC[C@H](O)COc4cccc5ccccc45)ncnc32)[C@H](O)[C@@H]1O [III, N-[2S-hydroxy-3[1-naphthalenyloxy)propyl]-adenosine] | no toxicity was observed |  |  |  | + | + | + | + | + | + | 14 ± 0% | 57 ± 8% | 1.2 nM | prevented to the same extent | -6.6 ± 4.0 ngAI/ml/hr | -6.3 ± 3.9 ngAI/ml/hr | 177 ± 19 b/min | 50 ± 14 mmHg | 0.031 ± 0.0014 mg/kg | 0.033 ± 0.0012 mg/kg | behavioral toxicity, overall comparison in words (mice [1]; mice): substantially less toxic than compounds I and II; also recorded: less CNS toxic than compound II with regard to behavioral toxicity; ataxia / motor toxicity compared to compound I, in words (mice [2]): less motor toxicity than compound I; also recorded: less ataxia at 0.5 or 3 hours as compared to compound I
